In general, IC50 refers to the concentration at which inhibition is half-maximal.

Where a chain is given by its changes, count along the chain named.

The target in one experiment is T1, autophosphorylated FLT3 kinase domain (FLT3KD) (Homo sapiens, UniProt P36888).
T1 construct: purified and autophosphorylated FLT3 kinase domain (FLT3KD); 6xHis (C); made in house; host or cells: baculovirus, SF9 / SF21 insect cells
T1 sequence (P36888 610-943 limits assumed): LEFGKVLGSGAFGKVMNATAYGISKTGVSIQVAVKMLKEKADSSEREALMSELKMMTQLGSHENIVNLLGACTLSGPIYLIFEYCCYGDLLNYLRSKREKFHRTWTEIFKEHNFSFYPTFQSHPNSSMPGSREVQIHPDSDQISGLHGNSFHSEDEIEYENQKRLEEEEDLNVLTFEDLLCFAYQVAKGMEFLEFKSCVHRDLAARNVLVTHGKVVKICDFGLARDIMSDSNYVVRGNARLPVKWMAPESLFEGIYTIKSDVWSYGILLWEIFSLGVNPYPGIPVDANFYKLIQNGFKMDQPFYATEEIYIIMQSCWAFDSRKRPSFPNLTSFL
Put plainly: FLT3 kinase assay (PK/LDH coupled, NADH loss at 340 nm). To be noted: Table 5; 250 μM ATP. In kind it is biochemical. The source says:
Although this example presents the use of the FLT3 kinase domain, the kinase assays may use various forms of FLT3, including, for example, the entire molecule, the kinase domain, or a portion thereof.
Materials : Substrate peptide=Poly (Glu, Tyr) 4:1=poly EY (Sigma P-0275); βNADH (Sigma CAT#N-8129, FW=709.4); 2M MgCl2; 1M HEPES buffer, pH 7.5; Phosphoenolpyruvate=PEP (Sigma CAT#P-7002, FW=234); Lactate dehydrogenase=LDH (Worthington Biochemical CAT#2756); Pyruvate Kinase=PK (Sigma CAT#P-9136); ATP (Sigma CAT#A-3377, FW=551); Greiner 384-well UV star plate; and purified and autophosphorylated FLT3 kinase domain (FLT3KD).
Stock Solutions: 10 mM NADH (7.09 mg/mL in miliQH2O) make fresh daily; 1 mg/mL Poly EY (in miliQH2O) store at −20° C.; 200mM HEPES buffer, pH 7.5 (10 ml 1M stock+40 ml miliQH2O) supplemented with 1 mM DTT; 100 mM MgCl2 (5 mL+95 ml dH2)); 100 mM PEP (23.4 mg/mL in dH2O) store at −20° C.; 10 mM ATP (5.51 mg/mL in dH2O) store at −20° C. (dilute 1 mL into total of 10 mL miliQH2O daily=1 mM ATP working stock); 1000 U/mL PK (U/mg varies with lot) flash-freeze under liquid N2 and store at −80° C.; 1000 U/mL LDH (U/mg varies with lot) flash-freeze under liquid N2 and store at −80° C.
Standard Assay Setup for 384-well format (50 μl reaction): 300 μM NADH; 10 mM MgCl2; 2 mM PEP; 45 U/mL PK; 60 U/mL LDH; 1 mg/mL Poly EY; 2.5 μL test compound (in DMSO); 10 μg/mL autophosphorylated FLT3 kinase domain; 250 μM ATP*; 100 mM HEPES buffer; QS with miliQ dH2O to 50 μL. Positive controls contained DMSO with no test compound. Negative controls contained 5 μl of 0.5M EDTA (50 mM in the assay). The kinase reaction was initiated at time t=0 by the addition of ATP.
The unphosphorylated FLT3KD that was produced required pre-incubation with MgATP to allow for autophosphorylation and full kinase activity. The autophosphorylation reaction was run in 100 mM HEPES buffer, 1 mM DTT, and 1 mg/mL FLT3KD by the addition of ATP and MgCl2 to a final concentration of 2 mM and 10 mM respectively. The reaction was allowed to proceed at room temperature for 90 minutes, and then was quenched by the addition of EDTA to 50 mM. The autophosphorylated protein was then aliquotted and flash frozen in liquid N2 for use.
The activity was measured by following the time-dependent loss of NADH by absorbance spectroscopy at 340 nm. The linear portion of the resulting progress curve was then be analyzed by linear regression to get the activity in absorbance units/time, reported as the slope of that best fit line (moles/unit time can be calculated from using molar extinction coeffecient for NADH at 340 nm, 6250M^−1cm^−1).
Data was analyzed using the equation: Z′=1−[3*(σ++σ−)/|μ+−μ−|], where μ denotes the mean and σ the standard deviation. The subscript designates positive or negative controls. The Z′ score for a robust screening assay should be ≧0.50. The typical threshold=μ+−3*σ+. Any value that falls below the threshold was designated a “hit.”
The dose response was measured using the equation: y=min+{(max−min)/1+10^[compound]-logIC50)}, where y is the observed initial slope, max is the slope in the absence of inhibitor, min is the slope at infinite inhibitor, and the IC50 is the [compound] that corresponds to ½ the total observed amplitude (Amplitude=max−min). The IC50 is related to the Ki by the following equation: IC50=Ki(1+[ATP]/Km).
To measure modulation, activation, or inhibition of FLT3KD, a test compound was added to the assay at a range of concentrations. Inhibitors may inhibit FLT3KD activity at an IC50 in the micromolar range, the nanomolar range, and, for example, in the subnanomolar range. […]
With `O=C(Nc1nc2[nH]nc(-c3cccc(C(F)(F)F)c3)c2s1)c1ccccc1`, the IC50 is 1 to 10 µM.

With `O=C(Nc1nc2[nH]nc(-c3ccc(Cl)cc3)c2s1)c1ccccc1` [drawing 246], the IC50 was under 1 µM.

With `O=C(Nc1nc2[nH]nc(-c3ccccc3)c2s1)c1ccncc1` [drawing 248], the IC50 was under 1 µM.

Consider `O=C(Nc1nc2[nH]nc(-c3ccccc3)c2s1)c1cccc(Br)c1` [drawing 249], for which the IC50 lay within 1 to 10 µM.

Molecule `COCCOCC(=O)Nc1nc2[nH]nc(-c3ccccc3)c2s1` [drawing 250] displayed an IC50 of 1 to 10 µM.

With `CC(=O)N1CCC(C(=O)Nc2nc3[nH]nc(-c4ccccc4)c3s2)CC1` [drawing 251], the IC50 fell in the range of 1 to 10 µM.

Still in this experiment, the particulars now being: Table 6; 250 μM ATP.
On to `O=C(Nc1nc2[nH]nc(-c3ccncc3)c2s1)c1ccccc1`, for which the IC50 is under 0.1 µM.

For the molecule `O=C(Nc1nc2[nH]nc(-c3ccccc3)c2s1)c1ccno1`, the IC50 was under 0.1 µM.

Molecule `CC(C)(C)c1n[nH]c2nc(NC(=O)c3ccccc3)sc12` yielded an IC50 of 0.1 to 1 µM.

The molecule `O=C(Nc1nc2[nH]nc(-c3ccco3)c2s1)c1ccccc1` showed an IC50 of 0.1 to 1 µM.

Turning to `O=C(Nc1nc2[nH]nc(-c3ccccn3)c2s1)c1ccco1`, the IC50 was in the range of 0.1 to 1 µM.

`CC(C)(C)c1n[nH]c2nc(NC(=O)c3ccncc3)sc12` came in with an IC50 of over 1 µM.

Consider `O=C(Nc1nc2[nH]nc(-c3ccc(O)cc3)c2s1)C1CC1` [drawing 254], for which the IC50 was under 0.1 µM.

With `O=C(Nc1nc2[nH]nc(-c3ccccc3)c2s1)c1cccc(Br)c1` [drawing 259], the half-maximal inhibitory concentration (IC50) was over 1 µM.

The target in the next experiment is T2, Abl T315I kinase domain, unphosphorylated (Mus musculus, UniProt P00520, T315I).
T2 construct: Purified and unphosphorylated T315I Abl kinase domain (clone 5582d42PPt6p6); made in house; host or cells: E. coli BL21(DE3) pSA0145, phosphatase co-expression plasmid
T2 sequence (P00520 242-493 T315I limits assumed): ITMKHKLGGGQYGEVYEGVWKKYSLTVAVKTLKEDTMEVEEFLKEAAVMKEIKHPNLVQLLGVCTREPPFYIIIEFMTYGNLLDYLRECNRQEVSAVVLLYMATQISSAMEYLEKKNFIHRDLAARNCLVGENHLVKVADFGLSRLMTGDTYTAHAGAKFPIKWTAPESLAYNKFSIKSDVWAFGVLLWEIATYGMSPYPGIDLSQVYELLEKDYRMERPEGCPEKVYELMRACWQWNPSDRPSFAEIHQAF
Put plainly: Abl T315I kinase assay (PK/LDH coupled, NADH loss at 340 nm). In kind it is biochemical. To be noted: Table 8; 10 μM ATP; zero phosphorylation state. The text has this:
(§1) Although this example presents the use of the kinase domain of a mutant form of Abl T315I 0-P, the kinase assays may use various forms of mutant and wild type Abl, including, for example, the entire molecule, the kinase domain, or a portion thereof. The kinases used in the assays may also be of varying phophorylation states. In the present example, a mutant kinase at a zero phosphorylation state was used.
(§2) Materials: Abl substrate peptide=EAIYAAPFAKKK-OH (Biopeptide, SD CA); βNADH (Sigma CAT#N-8129, FW=709.4); 2M MgCl2; 1M HEPES buffer, pH 7.5; Phosphoenolpyruvate=PEP (Sigma CAT#P-7002, FW=234); Lactate dehydrogenase=LDH (Worthington Biochemical CAT#2756); Pyruvate Kinase=PK (Sigma CAT#P-9136); ATP (Sigma CAT#A-3377, FW=551); Greiner 384-well UV star plate; and Purified and unphosphorylated T315I Abl kinase domain (clone 5582d42PPt6p6).
(§3) Stock Solutions: 10 mM NADH (7.09 mg/mL in miliQH2O) make fresh daily; 10 mM Abl substrate peptide (13.4 mg/mL in miliQH2O) store at −20° C.; 100 mM HEPES buffer, pH 7.5 (5 mL 1M stock+45 mL miliQH2O); 100 mM MgCl2 (5 mL 2M MgCl2+95 ml dH2O); 100 mM PEP (23.4 mg/mL in dH2O) store at −20° C.; 10 mM ATP (5.51 mg/mL in dH2O) store at −20° C. (dilute 50 μL into total of 10 mL miliQH2O daily=50 μM ATP working stock); 1000 U/mL PK (U/mg varies with lot) flash-freeze under liquid N2 and store at −80° C.; and 1000 U/mL LDH (U/mg varies with lot) flash-freeze under liquid N2 and store at −80° C.
(§4) Standard Assay Setup for 384-well format (50 μl reaction): 300 μM NADH; 10 mM MgCl2; 2 mM PEP; 45 U/mL PK; 60 U/mL LDH; 200 μM Abl substrate peptide; 2.5 μL test compound (in DMSO); 2 μg/mL Abl kinase domain; 10 μM ATP; 100 mM HEPES buffer; QS with miliQ dH2O to 50 μL; Positive controls contained DMSO with no test compound. Negative controls contained 5 μl of 0.5M EDTA (50 mM in the assay). The dephosphorylated form of the c-Abl T315I mutant were used in the biochemical screening assays. The kinase reaction was initiated at time t=0 by the addition of ATP.
(§5) The activity was measured by following the time-dependent loss of NADH by absorbance spectroscopy at 340 nm. The linear portion of the resulting progress curve was then be analyzed by linear regression to get the activity in absorbance units/time, reported as the slope of that best fit line (moles/unit time can be calculated from using molar extinction coefficient for NADH at 340 nm, 6250M^−1cm^−1).
(§6) Data was analyzed using the equation: Z′=1-[3*(σ++σ−)/|μ+−μ−|], where μ denotes the mean and σ the standard deviation. The subscript designates positive or negative controls. The Z′ score for a robust screening assay should be ≧0.50. The typical threshold=μ+−3*σ+. Any value that falls below the threshold was designated a “hit”.
(§7) Dose response was analyzed using the equation: y=min+{(max−min)/(1+10^[compound]-logIC50)}, where y is the observed initial slope, max=the slope in the absence of inhibitor, min=the slope at infinite inhibitor, and the IC50 is the [compound] that corresponds to ½ the total observed amplitude (Amplitude=max−min).
(§8) To measure modulation, activation, or inhibition of AblKD, a test compound was added to the assay at a range of concentrations. Inhibitors may inhibit AblKD activity at an IC50 in the micromolar range, the nanomolar range, and, for example, in the subnanomolar range.
(§9) To measure the binding of a compound to Abl or AblKD, a test kit manufactured by Discoverx (Fremont, Calif.), ED—Staurosporine NSIP™ Enzyme Binding Assay Kit (see U.S. Pat. No. 5,643,734) was used.
Molecule `CC(=O)Nc1nc2[nH]nc(-c3ccccc3Cl)c2s1` yielded an IC50 of over 1 µM.

On to `O=C(Nc1nc2[nH]nc(-c3ccccc3)c2s1)c1cccs1`, for which the IC50 was in the range of 0.5 to 1 µM.

Turning to `O=C(Nc1nc2[nH]nc(-c3cccc(Br)c3)c2s1)c1ccccc1`, the IC50 was over 1 µM.

`COCC(=O)Nc1nc2[nH]nc(-c3ccccc3)c2s1`: the 50% inhibitory concentration (IC50) was over 1 µM.

In turn, `O=C(Nc1nc2[nH]nc(-c3ccccc3Cl)c2s1)C1CC1` [drawing 266] came in with an IC50 of under 0.5 µM.

On to `O=C(Nc1nc2[nH]nc(-c3ccccc3Br)c2s1)C1CC1` [drawing 267], for which the IC50 is under 0.5 µM.

As to `O=C(Nc1nc2[nH]nc(-c3ccccc3)c2s1)c1ccco1` [drawing 268], the IC50 is under 0.5 µM.

`COc1ccc(-c2n[nH]c3nc(NC(=O)C4CC4)sc23)cc1` [drawing 271] showed a half-maximal inhibitory concentration (IC50) of 0.5 to 1 µM.

Another experiment concerns the target T3, Abl Y393F (Mus musculus, UniProt P00520, Y393F).
T3 construct: 2 μg/mL Abl kinase domain; made in house
T3 sequence (P00520 242-493 Y393F limits assumed): T2 sequence (P00520 242-493 T315I limits assumed) with I74T, Y152F
Briefly: Abl Y393F kinase assay. In kind it is biochemical. To be noted: Table 8.
Source text: as §1, §2, §3, §4, §5, §6, §7, §8, §9
Consider `CC(=O)Nc1nc2[nH]nc(-c3ccccc3Cl)c2s1`, for which the IC50 was over 1 µM.

Molecule `O=C(Nc1nc2[nH]nc(-c3ccccc3)c2s1)c1cccs1` gave an IC50 of 0.5 to 1 µM.

On to `O=C(Nc1nc2[nH]nc(-c3cccc(Br)c3)c2s1)c1ccccc1`, for which the IC50 is over 1 µM.

For `COCC(=O)Nc1nc2[nH]nc(-c3ccccc3)c2s1`, the concentration for half-maximal inhibition (IC50) was over 1 µM.

With `O=C(Nc1nc2[nH]nc(-c3ccccc3Cl)c2s1)C1CC1` [drawing 266], the IC50 was under 0.5 µM.

Turning to `O=C(Nc1nc2[nH]nc(-c3ccccc3Br)c2s1)C1CC1` [drawing 267], the IC50 was under 0.5 µM.

The molecule `O=C(Nc1nc2[nH]nc(-c3ccccc3)c2s1)c1ccco1` [drawing 268] gave an IC50 of under 0.5 µM.

Take `COc1ccc(-c2n[nH]c3nc(NC(=O)C4CC4)sc23)cc1` [drawing 271]: the IC50 was over 1 µM.

Values taken from patent US7473783B2, “Bicyclic pyrazolo protein kinase modulators” (SGX Pharmaceuticals, Inc., priority 2003, dated 2009).
